Laboratory results from patent EP0538469A1, “SULFONANILIDE DERIVATIVE AND MEDICINE” (NIPPON SHINYAKU COMPANY, LIMITED, priority 1990, dated 1991).
Structures can show the parent of a compound that is named as a salt. Where two headings read alike, the source gives them in different places.

Assays:
rats (SD strain, male) = experiment: Acute toxicity, oral, rats; assay type: in vivo; conditions: observed two weeks
Description: (§1) Numbers of mice (ddY-strain, male, 6-8 weeks age) and rats (SD strain, male, 6-7 weeks age) in each group were 4 and 6, respectively.
(§2) The drug to be tested was orally administered at the dose of 10 ml/kg using an oral probe to the animals which were fasted since one day before (for 16-18 hours). After giving the drug, the animals were returned to the state where both feed and water were available and the general symptom and the dead cases, if any, were checked for two weeks. The drug was suspended in physiological saline solution containing 0.5% of methylcellulose (0.5% MC) and the suspension was given to the animals by oral route.

[1] = Acute toxicity, oral, rats; assay type: in vivo; conditions: rat, in vivo, SD rats, read-out: Rats LD₅₀
Description: as §1, §2

male rabbits = experiment: Action to intra urethral pressure and blood pressure, intravenous administration; assay type: in vivo; conditions: i.v.; for Selectivity (B/A): BP(ED30%↑) / IUP(ED150%↑); for ED (30%) / ED (150%): Oryctolagus cuniculus, iv, anesthetized male rabbits; for ED (30%): dose increasing blood pressure to an extent of 30%, read-out: BP(B) [BP(ED30%↑)] (converted); for ED (150%): dose increasing intra urethral pressure to an extent of 150%, read-out: IUP(A) [IUP(ED150%↑)]
Description: The experiment was conducted using male rabbits of body weight of 1.4-3.1 kg under fasted condition. The animals were fixed at backs under uretrane(1.2g/kg s.c.) anesthesia, abdomen was subjected to a midline incision and bladder was exposed. In order to prevent the urine stored in the bladder on the intra urethral pressure, the urine in the bladder was compulsorily discharged out of the body. After that, a catheter was inserted into both ureters and the urine discharged from kidney was introduced outside.
The intra urethral pressure(IUP) at the urethra tract of about 0.5-1 cm distance from the neck of the bladder was measured using a microtip transducer transducer equipped with a baloon (filled with physiological saline solution) at the top end. Further, polyethylene tube was inserted into femoral artery to measure the blood pressure (BP).
The drug to be tested was injected into the vein of ear every fifteen minutes and the maximum responses of the increasing action of intra urethral pressure tract and of the increasing action of blood pressure were measured at each dose.

mice (ddY-strain, male) = experiment: Acute toxicity, oral, mice; assay type: in vivo; conditions: observed two weeks
Description: as §1, §2

femoral artery = experiment: Contraction of isolated femoral artery (Magnus vessel, cumulative concentration/response curves); assay type: cell-based, rabbits; conditions: Oryctolagus cuniculus, female rabbit femoral artery, contraction
Description: (§3) The experiment was conducted using female rabbits of 2 to 3.5 kg body weight.
(§4) The animals were killed by draining the blood out under anesthetizing with pentobarbital (30 mg/kg, by intravenous injection) and smooth muscle of urethra and femoral artery were excised. Each of the excised samples was placed in a Magnus vessel filled with a modified Krebs solution (at 37°C; under mixed gas) and both smooth muscle of urethra and femoral artery were suspended with 1 g load.
(§5) The drug to be tested was accumulated to contract the samples whereby the concentration/response curves were obtained wherefrom ED₅₀ (M) and pD₂ were calculated and the selectivity to urethra was determined.

smooth muscle of urethra = experiment: Contraction of isolated smooth muscle of urethra (Magnus vessel, cumulative concentration/response curves); assay type: cell-based, rabbits; conditions: Oryctolagus cuniculus, female rabbit urethra smooth muscle, contraction
Description: as §3, §4, §5

Row | Structure (SMILES) | Rats Dead/ Total (rats (SD strain, male); 300 mg/kg) | LD50 at 336 h [1] | Selectivity (B/A) (male rabbits; hydrochloride) | ED (30%) (male rabbits) | ED (150%) (male rabbits) | Rats Dead/ Total (rats (SD strain, male); 100 mg/kg) | Mice Dead/ Total (mice (ddY-strain, male); 1000 mg/kg) | other results
1 | CNCC(O)c1cc(NS(C)(=O)=O)ccc1Cl (racemic) [(67A), (±)-4'-Chloro-3'-(1-hydorxy-2-methylaminoethyl)methanesulfonanilide hydrochloride, reference compound] | 0 / 6 | > 300 mg/kg | 4.2 | 2.93 mg/kg | 0.7 mg/kg | – | – | –
2 | CS(=O)(=O)Nc1cc(F)cc(C(O)CN)c1.Cl (racemic) [(73A), (±)-3'-(2-Amino-1-hydroxyethyl)-5'-fluoromethanesulfonanilide hydrochloride] | 5 / 6 | ~200 mg/kg | 3.0 | 0.081 mg/kg | 0.027 mg/kg | 1 / 6 | – | –
3 | CS(=O)(=O)Nc1cccc([C@@H](O)CN)c1.Cl [(24B), (R)-(-)-3'-(2-Amino-1-hydroxyethyl)-methanesulfonanilide hydrochloride, reference compound] | – | 23.2 mg/kg | 1.0 | 0.019 mg/kg | 0.019 mg/kg | 5 / 6 | 0 / 4 | Rats Dead/ Total (rats (SD strain, male); 5 mg/kg): 0 / 6; Rats Dead/ Total (rats (SD strain, male); 10 mg/kg): 2 / 6; Rats Dead/ Total (rats (SD strain, male); 30 mg/kg): 4 / 6
4 | CNC[C@H](O)c1ccc(F)c(NS(C)(=O)=O)c1 [(61B)] | 6 / 6 | 36.1 mg/kg | – | – | – | 5 / 6 | – | Rats Dead/ Total (rats (SD strain, male); 3 mg/kg): 0 / 6; Rats Dead/ Total (rats (SD strain, male); 10 mg/kg): 2 / 6; Rats Dead/ Total (rats (SD strain, male); 30 mg/kg): 1 / 6
5 | CNC[C@H](O)c1cccc(O)c1 [Phenylephrine] | – | – | – | 0.019 mg/kg | 0.037 mg/kg | – | – | EC50 (femoral artery; read-out: ED₅₀ Femoral Artery(B)): 480 nM; EC50 (femoral artery; read-out: pD₂ Femoral Artery(B)): 479 nM; EC50 (smooth muscle of urethra; read-out: ED₅₀ Urethra(A)): 3750 nM; EC50 (smooth muscle of urethra; read-out: pD₂ Urethra(A)): 3720 nM
6 | CS(=O)(=O)Nc1cc(C(O)CN)c(F)cc1F.Cl (racemic) [(63A), (±)-5'-(2-Amino-1-hydroxyethyl)-2',4'-difluoromethanesulfonanilide hydrochloride] | 0 / 6 | > 300 mg/kg | 2.9 | 0.19 mg/kg | 0.065 mg/kg | – | – | –
7 | CNCC(O)c1ccc(F)c(NS(C)(=O)=O)c1.Cl (racemic) [(61A), (±)-2'-Fluoro-5'-(1-hydroxy-2-methylaminoethyl)methanesulfonanilide hydrochloride, reference compound] | 0 / 6 | > 300 mg/kg | 1.2 | 0.037 mg/kg | 0.031 mg/kg | – | – | –
8 | CS(=O)(=O)Nc1ccc(F)c(C(O)CN)c1 (racemic) [(49A), (±)-3'-(2-Amino-1-hydorxyethyl)-4'-fluoromethanesulfonanilide hydrochloride] | – | > 500 mg/kg | – | 0.044 mg/kg | 0.02 mg/kg | 0 / 6 | 0 / 4 | Rats Dead/ Total (rats (SD strain, male); 500 mg/kg): 1 / 6; Selectivity (B/A) (male rabbits): 2.2
9 | CNCC(O)c1cc(NS(C)(=O)=O)c(F)cc1F.Cl (racemic) [(71A), (±)-2',4'-Difluoro-5'-(1-hydroxy-2-methylaminoethyl)methanesulfonanilide hydrochloride] | 0 / 6 | > 300 mg/kg | 2.1 | 0.095 mg/kg | 0.045 mg/kg | – | – | –
10 | CS(=O)(=O)Nc1ccc(F)c([C@@H](O)CN)c1.O=C(O)C(O)C(O)C(=O)O [(49K), (R)-(-)-3'-(2-Amino-1-hydroxyethyl)-4'-fluoromethanesulfonanilide L-(+)-tartrate] | 0 / 6 | > 1000 mg/kg | – | 0.059 mg/kg | 0.009 mg/kg | 0 / 6 | 0 / 4 | Rats Dead/ Total (rats (SD strain, male); 500 mg/kg): 2 / 6; Rats Dead/ Total (rats (SD strain, male); 1000 mg/kg): 1 / 6; Mice Dead/ Total (mice (ddY-strain, male); 3000 mg/kg): 0 / 4; Selectivity (B/A) (male rabbits): 6.6
11 | CS(=O)(=O)Nc1cccc(C(O)CN)c1.Cl (racemic) [(24A), (±)-3'-(2-Amino-1-hydroxyethyl)methanesulfonanilide hydrochloride, reference compound] | 1 / 6 | > 300 mg/kg | 1.0 | 0.036 mg/kg | 0.035 mg/kg | 1 / 6 | 0 / 4 | Rats Dead/ Total (rats (SD strain, male); 30 mg/kg): 0 / 6; Mice Dead/ Total (mice (ddY-strain, male); 3000 mg/kg): 3 / 4
12 | C[C@H](N)[C@H](O)c1cc(NS(C)(=O)=O)ccc1F (racemic) [(59A), (±)-erythro-3'-(2-Amino-1-hydroxypropyl)-4'-fluoromethanesulfonanilide hydrochloride] | – | > 100 mg/kg | 1.9 | 0.083 mg/kg | 0.044 mg/kg | 0 / 6 | – | –
13 | C[C@H](N)[C@H](O)c1ccc(F)c(NS(C)(=O)=O)c1 (racemic) [(70A), (±)-erythro-5'-(2-Amino-1-hydroxypropyl)-2'-fluoromethanesulfonanilide hydrochloride] | 2 / 6 | > 300 mg/kg | 3.6 | 0.1 mg/kg | 0.028 mg/kg | – | – | –
